We go through one compound from patent US20210040073A1, “AZABICYCLO-SUBSTITUTED TRIAZOLE DERIVATIVE, PREPARATION METHOD THEREOF, AND APPLICATION OF SAME IN MEDICINE” (Jiangsu Hengrui Medicine Co., Ltd., priority 2016, published 2021).

A word on the pIC50: it is −log10 of the IC50, conventionally taken in molar units.

pIC50: −log10 of the molar value.

Assay type in all cases: cell-based
Test [1] deals with T1, human V1aR (Homo sapiens, UniProt P37288).
T1 construct: expressed in transfected cells
T1 sequence (P37288 whole entry): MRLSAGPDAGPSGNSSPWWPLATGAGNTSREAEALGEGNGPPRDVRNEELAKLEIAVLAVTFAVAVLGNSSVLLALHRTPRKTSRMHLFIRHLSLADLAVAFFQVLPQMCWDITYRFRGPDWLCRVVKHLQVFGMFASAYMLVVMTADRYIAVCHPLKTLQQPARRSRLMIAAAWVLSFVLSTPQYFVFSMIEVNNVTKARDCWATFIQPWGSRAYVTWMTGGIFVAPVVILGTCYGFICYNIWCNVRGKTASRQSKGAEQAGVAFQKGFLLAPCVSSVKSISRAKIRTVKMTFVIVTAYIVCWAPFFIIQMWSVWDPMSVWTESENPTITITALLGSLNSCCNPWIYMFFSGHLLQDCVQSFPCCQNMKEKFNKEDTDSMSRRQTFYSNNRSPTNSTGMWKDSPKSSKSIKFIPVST
The experiment in a line: Inhibition activity on human V1aR (Fluo-4 calcium assay, HEK293/human V1aR stably transfected cells, vasopressin 3 nM). As to conditions: calcium signal. The protocol: The inhibition effect of the compounds of the present invention on the activity of human V1aR protein expressed in HEK293/human V1aR stably transfected cells was determined by the following experimental method:
The pcDNA3.1-V1aR plasmid was transferred into HEK293 cells with the Lipofectamine® 3000 transfection reagent; G418 was added on the next day to screen, and monoclonal cell lines were selected.
(§1) HEK293/human V1aR stably transfected cells were inoculated in a 96-well plate with an inoculation density of 25,000 cells/well one day in advance. On the next day, a loading buffer containing Fluo-4 dye was formulated using the reagents in the Fluo-4 NW calcium assay kit, and the culture medium was then removed; 100 μl of the loading buffer containing Fluo-4 dye were added to each well, and the plate was incubated at 37° C. for 30 minutes. After that, the plate was moved to room temperature and equilibrated for 10 minutes. The compounds were formulated into concentration gradients of 10^6, 10^5, 10^4, 10^3, 10^2 and 10^1 nM. 1 μl of the compounds in each concentration was added to each well, and the plate was incubated at room temperature for 10 minutes. […] IC50 values of the compounds were calculated by Graphpad prism software using fluorescence signals corresponding to different concentrations.
The inhibition activity of the compounds of the present invention on human V1aR was determined by the above test, and the obtained IC50 values are shown in Table 2.

The target in test [2] is T2, human V1bR (Homo sapiens, UniProt P47901).
T2 construct: expressed in transfected cells; host or cells: HEK293 (G418-selected pool)
T2 sequence (P47901 1-424): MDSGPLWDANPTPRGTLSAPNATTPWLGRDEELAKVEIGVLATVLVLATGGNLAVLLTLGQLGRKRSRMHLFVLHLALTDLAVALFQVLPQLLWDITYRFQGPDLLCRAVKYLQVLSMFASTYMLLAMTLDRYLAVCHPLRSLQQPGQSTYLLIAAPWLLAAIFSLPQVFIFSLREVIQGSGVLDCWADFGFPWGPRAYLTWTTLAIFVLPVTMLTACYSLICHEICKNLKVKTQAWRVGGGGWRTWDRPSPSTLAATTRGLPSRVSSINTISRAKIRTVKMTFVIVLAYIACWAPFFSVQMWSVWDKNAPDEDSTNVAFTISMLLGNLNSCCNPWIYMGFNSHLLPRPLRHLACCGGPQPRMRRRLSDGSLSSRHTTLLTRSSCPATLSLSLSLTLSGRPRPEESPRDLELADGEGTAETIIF
Description: Inhibition activity on human V1bR (Fluo-4 calcium assay, HEK293/human V1bR pool cells, vasopressin 3 nM). The settings on record: calcium signal. The protocol:
The inhibition effect of the compounds of the present invention on the activity of human V1bR protein expressed in HEK293/human V1bR cells was determined by the following experimental method:
The pcDNA3.1-V1bR plasmid was transferred into HEK293 cells with the Lipofectamine® 3000 transfection reagent; G418 was added on the next day, and the HEK293/human V1bR pool cell lines were obtained.
as §1, with “V1bR pool” for “V1aR stably transfected”

Test [3] addresses T3, human V2R (Homo sapiens, UniProt P30518).
T3 construct: expressed in transfected cells; host or cells: HEK293 (G418-selected pool)
The experiment in a line: Inhibition activity on human V2R (cAMP HTRF assay, HEK293/human V2R pool cells, vasopressin). The protocol: The inhibition effect of the compounds of the present invention on the activity of human V2R protein expressed in HEK293/human V2R cells was determined by the following experimental method:
The pcDNA3.1-V2R plasmid was transferred into HEK293 cells with the Lipofectamine® 3000 transfection reagent; G418 was added on the next day, and the HEK293/human V2R pool cell lines were obtained.
HEK293/human V2R pool cells were digested with the cell dissociation solution (enzyme-free), thereby dissociating the cells from the cell culture dish into individual cells. After completion, the cell solution was blown well, and centrifuged to remove the supernatant. The cells were re-suspended in the test buffer 1 (1×HBSS+20 mM HEPES+0.1% BSA) and counted. The cell density was adjusted to 1250 cells/5 μl, i.e., 2.5*10^5/ml.
The compounds were formulated into a series of concentrations of 20 mM, 6.67 mM, 2.22 mM, 0.74 mM, 0.25 mM, 0.08 mM, 27.4 μM, 9.14 μM, 3.05 μM, 1.02 μM, 0.34 μM and 0 μM (DMSO) with pure DMSO. The compounds were then formulated into a 4-fold use concentration with the test buffer 2 (test buffer 1+1 mM IBMX).
Agonist: 460 μM vasopressin was used as the mother liquor, formulated as a 2 μM solution with DMSO, which was then diluted to a 0.5 nM solution with the test buffer 2.
Standard: The first point was 20 μl of a stock solution (2848 nM), which was diluted successively to a total of eleven concentrations in a 4-fold concentration gradient with the test buffer 1 from the second point.
1. The well-mixed cells were added to a 384-well plate (5 μl/well) without changing the tip.
2. The test compounds and positive compound formulated were added (2.5 μl/well), and the tips were changed.
3. The plate was centrifuged at 1000 rpm for 1 min, shaken for 30 sec to mix well, and incubated at room temperature for 30 min.
4. The standard curve wells were added with the test buffer 2 (5 μl/well).
5. The agonist formulated was added (2.5 μl/well), and the tips were changed; the plate was centrifuged at 1000 rpm for 1 min, shaken for 30 sec to mix well, and incubated at room temperature for 30 min.
6. cAMP-d2 (a component in the cAMP dynamic 2 kit) and Anti-cAMP-Eu-Cryptate (a component in the cAMP dynamic 2 kit) were formulated in the dark, which were then mixed well with cAMP lysate (a component in the cAMP dynamic 2 kit) in a ratio of 1:4. Each well was added with the formulated cAMP-d2 solution (5 μl/well), followed by addition of Anti-cAMP-Eu-Cryptate (5 μl/well). The plate was shaken for 30 sec to mix well, and incubated in the dark at room temperature for 1 h.
4) Plate reading: The HTRF signals were read by the PheraStar multi-function microplate reader.
The data in this test was processed using the data processing software Graphpad Prism.
The inhibition activity of the compounds of the present invention on human V2R was determined by the above test, and the obtained IC50 values are shown in Table 4.

T3 sequence (P30518 whole entry): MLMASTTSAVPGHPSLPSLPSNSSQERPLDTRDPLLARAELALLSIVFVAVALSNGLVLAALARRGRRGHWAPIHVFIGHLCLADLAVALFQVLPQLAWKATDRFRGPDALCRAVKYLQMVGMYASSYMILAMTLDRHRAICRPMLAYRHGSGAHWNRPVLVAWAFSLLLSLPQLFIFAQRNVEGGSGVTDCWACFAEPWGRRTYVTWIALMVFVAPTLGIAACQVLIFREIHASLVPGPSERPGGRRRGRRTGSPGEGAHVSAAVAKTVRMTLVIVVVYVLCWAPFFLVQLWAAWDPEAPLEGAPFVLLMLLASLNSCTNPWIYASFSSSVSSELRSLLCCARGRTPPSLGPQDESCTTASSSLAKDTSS

With `COc1ccc(-n2c(C)nnc2N2C[C@@H]3C[C@]3(c3ccc(F)cc3Cl)C2)cn1` [Example 7, (1S,5R)-1-(2-Chloro-4-fluorophenyl)-3-(4-(6-methoxypyridin-3-yl)-5-methyl-4H-1,2,4-triazol-3-yl)-3-azabicyclo[3.1.0]hexane], the pIC50 was 5.70 in test [1], 4.91 in test [2] and 4.05 in test [3].
